Source: ChEMBL document CHEMBL5303304, “EUbOPEN Chemogenomics Library - IncuCyte” (2023)

Columns and labels:
Assay type in all cases: toxicity, cell-based
[1] = system: U2OS; assay: Incucyte cell viability with U2OS; details: human, 10 µM, compound concentration 10 uM
[2] = system: Fibroblast; assay: Incucyte cell viability with human fibroblast; details: 10 µM, compound concentration 10 uM
[3] = system: HEK-293T; assay: Incucyte cell viability with HEK293T; details: human, 10 µM, compound concentration 10 uM
Also: unitless GR value; below 1 slowed growth and below 0 cell loss.

| Compound | Growth Rate ([1]; 0 h, replicate number 1) | Growth Rate ([1]; 6 h, replicate number 1) | Growth Rate ([1]; 6 h, replicate number 2) | Growth Rate ([1]; 12 h, replicate number 1) | Growth Rate ([1]; 18 h, replicate number 1) | Growth Rate ([1]; 24 h, replicate number 1) | Growth Rate ([1]; 24 h, replicate number 2) | Growth Rate ([2]; 0 h, replicate number 1) | Growth Rate ([2]; 0 h, replicate number 2) | Growth Rate ([2]; 6 h, replicate number 2) | Growth Rate ([2]; 12 h, replicate number 2) | Growth Rate ([3]; 0 h, replicate number 1) | Growth Rate ([3]; 0 h, replicate number 2) | Growth Rate ([2]; 24 h, replicate number 1) | Growth Rate ([3]; 6 h, replicate number 2) | Growth Rate ([3]; 12 h, replicate number 2) | Growth Rate ([3]; 18 h, replicate number 2) | Growth Rate ([3]; 24 h, replicate number 2) | Growth Rate ([2]; 6 h, replicate number 1) | Growth Rate ([2]; 12 h, replicate number 1) | also measured |
| --- | --- | --- | --- | --- | --- | --- | --- | --- | --- | --- | --- | --- | --- | --- | --- | --- | --- | --- | --- | --- | --- |
| C[C@@H]1OCC2(CCN(c3cnc(Sc4ccnc(N)c4Cl)c(N)n3)CC2)[C@@H]1N [BATOPROTAFIB] | 0.89 | 0.3 | 0.99 | 0.53 | 0.78 | 0.69 | 0.99 | -1 | 0.47 | -0.69 | 0.8 | 0.52 | -0.24 | – | – | – | – | – | – | – | Growth Rate ([1]; 12 h, replicate number 2): 0.78; Growth Rate ([1]; 18 h, replicate number 2): 0.91 |
| COc1cc2c(cc1CC=C(C)C)C(=O)C[C@@H](c1ccc(O)cc1)O2 [BAVACHININ A] | -0.43 | – | 0.85 | 0.89 | 0.89 | 0.73 | 0.99 | – | -0.08 | 0.81 | – | -0.07 | -0.67 | 0.99 | 0.97 | 0.94 | 0.89 | 0.92 | – | – | – |
| Cc1ccccc1Oc1cc(-n2c(=O)cc(C(F)(F)F)[nH]c2=O)c2ccccc2c1Cl [BAY-069] | -0.77 | 0.02 | 0.72 | -0.7 | 0.63 | 0.81 | 0.86 | 0.91 | 0.05 | – | – | 0.78 | -0.96 | 0.75 | 0.24 | 0.38 | 0.39 | 0.45 | 0.84 | 0.51 | Growth Rate ([1]; 0 h, replicate number 2): 0.42; Growth Rate ([1]; 12 h, replicate number 2): 0.77; Growth Rate ([1]; 18 h, replicate number 2): 0.86; Growth Rate ([2]; 18 h, replicate number 1): 0.76; Growth Rate ([3]; 6 h, replicate number 1): 0.59; Growth Rate ([3]; 12 h, replicate number 1): 0.74; Growth Rate ([3]; 18 h, replicate number 1): 0.72; Growth Rate ([3]; 24 h, replicate number 1): 0.64 |
| CC[C@@H](Nc1c(C#N)c(-c2ccc(-c3cccc(C)c3F)cc2)nc2cnccc12)C(=O)O [BAY-091] | – | 0.82 | – | 0.7 | 0.68 | 0.81 | – | -0.38 | -0.33 | 0.39 | 0.58 | – | 0.76 | 0.88 | 0.63 | 0.85 | 0.85 | 0.88 | 0.59 | 0.86 | Growth Rate ([2]; 18 h, replicate number 1): 0.96; Growth Rate ([2]; 18 h, replicate number 2): 0.73; Growth Rate ([2]; 24 h, replicate number 2): 0.84; Growth Rate ([3]; 6 h, replicate number 1): 0.68; Growth Rate ([3]; 12 h, replicate number 1): 0.65; Growth Rate ([3]; 18 h, replicate number 1): 0.86; Growth Rate ([3]; 24 h, replicate number 1): 0.78 |
| CC[C@H](Nc1c(C#N)c(-c2ccc(-c3cccc(C)c3F)cc2)nc2cnccc12)C(=O)O [BAY-0361] | – | 0.1 | – | 0.56 | 0.74 | 0.91 | – | – | – | 0.85 | 0.93 | – | 0.79 | 0.8 | 0.74 | 0.98 | 0.94 | 0.98 | 0.67 | 0.65 | Growth Rate ([2]; 18 h, replicate number 1): 0.75; Growth Rate ([2]; 24 h, replicate number 2): 0.84; Growth Rate ([3]; 6 h, replicate number 1): 0.67; Growth Rate ([3]; 12 h, replicate number 1): 0.79; Growth Rate ([3]; 18 h, replicate number 1): 0.91; Growth Rate ([3]; 24 h, replicate number 1): 0.92 |
| O[C@]1(C(F)(F)F)CCCC[C@H]1Nc1ccc(F)cc1 [BAY-390] | -0.18 | 0.4 | 0.7 | 0.57 | 0.69 | 0.74 | 0.93 | – | 0.2 | – | – | -0.2 | -0.23 | 0.89 | 0.5 | 0.95 | – | – | 0.19 | 0.69 | Growth Rate ([1]; 0 h, replicate number 2): 0.62; Growth Rate ([1]; 12 h, replicate number 2): 0.8; Growth Rate ([2]; 18 h, replicate number 1): 0.78 |
| Cc1c(N2CCNCC2)nc2ccc(Br)cc2c1C(=O)NC[C@H](CCC(=O)O)c1ccccc1Cl [BAY-403] | -0.04 | 0.58 | 0.52 | 0.84 | 0.91 | 0.95 | – | 0.47 | 0.9 | 0.04 | 0.12 | – | -0.32 | – | 0.8 | 0.81 | 0.9 | – | – | – | Growth Rate ([2]; 18 h, replicate number 2): 0.51; Growth Rate ([2]; 24 h, replicate number 2): 0.7; Growth Rate ([3]; 6 h, replicate number 1): 0.58; Growth Rate ([3]; 18 h, replicate number 1): 0.76; Growth Rate ([3]; 24 h, replicate number 1): 0.88 |
